The source of these data is publication PMC3564796, “Reversal of MRP7 (ABCC10)-Mediated Multidrug Resistance by Tariquidar” (PLoS ONE, 2013).

Assay [1] addresses T1, MRP7 (ABCC10) (Homo sapiens, UniProt Q5T3U5).
T1 construct: MRP7 expression vector stably transfected into HEK293 cells (HEK/MRP7); empty-vector HEK/pcDNA as control
T1 sequence (Q5T3U5 1-1492): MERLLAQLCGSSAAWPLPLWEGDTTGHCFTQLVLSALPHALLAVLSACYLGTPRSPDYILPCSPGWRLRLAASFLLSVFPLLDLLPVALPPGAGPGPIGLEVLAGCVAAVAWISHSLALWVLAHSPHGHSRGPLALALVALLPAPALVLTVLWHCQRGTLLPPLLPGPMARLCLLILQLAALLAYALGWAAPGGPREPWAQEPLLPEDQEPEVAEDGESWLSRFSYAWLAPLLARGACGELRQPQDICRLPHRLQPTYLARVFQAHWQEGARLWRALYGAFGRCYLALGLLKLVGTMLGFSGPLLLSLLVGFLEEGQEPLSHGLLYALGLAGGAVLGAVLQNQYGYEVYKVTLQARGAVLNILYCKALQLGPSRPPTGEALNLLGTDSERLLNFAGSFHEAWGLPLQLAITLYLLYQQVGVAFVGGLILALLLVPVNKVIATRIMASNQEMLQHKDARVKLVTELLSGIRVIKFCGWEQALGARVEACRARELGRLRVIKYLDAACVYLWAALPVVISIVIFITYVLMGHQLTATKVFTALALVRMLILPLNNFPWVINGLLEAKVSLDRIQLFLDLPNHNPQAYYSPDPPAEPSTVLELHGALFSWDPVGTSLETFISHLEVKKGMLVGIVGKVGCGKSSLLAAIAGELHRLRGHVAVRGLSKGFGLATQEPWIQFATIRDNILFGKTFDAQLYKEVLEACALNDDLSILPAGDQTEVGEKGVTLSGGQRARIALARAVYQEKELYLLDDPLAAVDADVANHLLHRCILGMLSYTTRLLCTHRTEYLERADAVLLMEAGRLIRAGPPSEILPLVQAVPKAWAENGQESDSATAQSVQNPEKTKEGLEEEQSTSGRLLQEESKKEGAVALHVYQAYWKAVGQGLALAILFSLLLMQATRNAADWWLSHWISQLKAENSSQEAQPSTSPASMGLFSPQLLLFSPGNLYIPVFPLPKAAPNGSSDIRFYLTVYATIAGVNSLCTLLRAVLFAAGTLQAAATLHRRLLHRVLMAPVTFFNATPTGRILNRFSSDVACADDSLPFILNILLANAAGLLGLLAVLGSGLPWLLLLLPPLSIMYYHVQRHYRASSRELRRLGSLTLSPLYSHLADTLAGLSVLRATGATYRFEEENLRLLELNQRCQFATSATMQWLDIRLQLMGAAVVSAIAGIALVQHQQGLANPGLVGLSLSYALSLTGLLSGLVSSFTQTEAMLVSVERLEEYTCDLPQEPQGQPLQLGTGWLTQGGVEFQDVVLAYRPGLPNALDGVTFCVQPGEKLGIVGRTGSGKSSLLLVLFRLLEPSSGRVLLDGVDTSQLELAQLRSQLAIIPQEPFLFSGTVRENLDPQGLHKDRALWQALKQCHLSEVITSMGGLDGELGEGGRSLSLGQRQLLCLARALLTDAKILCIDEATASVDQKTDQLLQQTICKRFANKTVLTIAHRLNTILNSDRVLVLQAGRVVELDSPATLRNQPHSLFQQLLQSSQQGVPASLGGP
The assay is described as follows: [3H]-paclitaxel accumulation in HEK/MRP7 cells. In kind it is cell-based. The conditions noted are these: 4 h treatment; 0.01 µM [3H]-paclitaxel (methods; Figure 5 legend prints 0.1 µM); 37°C; inhibitor of efflux.

The target in assay [2] is T1, MRP7 (ABCC10). The assay is described as follows: cellular efflux time course, HEK/MRP7 versus HEK/pcDNA. It counts as cell-based. The conditions noted are these: labelled compound (3H); 0.01 µM; 37°C; 0-120 min.

For `COc1cc2c(cc1OC)CN(CCc1ccc(NC(=O)c3cc(OC)c(OC)cc3NC(=O)c3cnc4ccccc4c3)cc1)CC2` [Tariquidar], the “fold [3H]-paclitaxel accumulation at 0.3 μM” value at MRP7 (ABCC10) [1] worked out at 1.8 fold.
With `CC(=O)O[C@H]1C(=O)[C@@]2(C)[C@H]([C@H](OC(=O)c3ccccc3)[C@]3(O)C[C@H](OC(=O)[C@H](O)[C@@H](NC(=O)c4ccccc4)c4ccccc4)C(C)=C1C3(C)C)[C@]1(OC(C)=O)CO[C@@H]1C[C@@H]2O` [[^3H]-paclitaxel], on MRP7 (ABCC10) [2], the “cellular efflux time course, HEK/MRP7 versus HEK/pcDNA” value is “HEK/MRP7 cells, but not the parental HEK/pcDNA cells, rapidly effluxed [^3H]-paclitaxel”.
